# Laboratory results as given in ChEMBL document CHEMBL3879881, “Substituted pyrazolyl compounds for the treatment of inflammation” (2005).
# Molecular target: T1, Inhibitor of nuclear factor kappa-B kinase subunit beta (Homo sapiens, UniProt O14920)
# T1 sequence (O14920 whole entry): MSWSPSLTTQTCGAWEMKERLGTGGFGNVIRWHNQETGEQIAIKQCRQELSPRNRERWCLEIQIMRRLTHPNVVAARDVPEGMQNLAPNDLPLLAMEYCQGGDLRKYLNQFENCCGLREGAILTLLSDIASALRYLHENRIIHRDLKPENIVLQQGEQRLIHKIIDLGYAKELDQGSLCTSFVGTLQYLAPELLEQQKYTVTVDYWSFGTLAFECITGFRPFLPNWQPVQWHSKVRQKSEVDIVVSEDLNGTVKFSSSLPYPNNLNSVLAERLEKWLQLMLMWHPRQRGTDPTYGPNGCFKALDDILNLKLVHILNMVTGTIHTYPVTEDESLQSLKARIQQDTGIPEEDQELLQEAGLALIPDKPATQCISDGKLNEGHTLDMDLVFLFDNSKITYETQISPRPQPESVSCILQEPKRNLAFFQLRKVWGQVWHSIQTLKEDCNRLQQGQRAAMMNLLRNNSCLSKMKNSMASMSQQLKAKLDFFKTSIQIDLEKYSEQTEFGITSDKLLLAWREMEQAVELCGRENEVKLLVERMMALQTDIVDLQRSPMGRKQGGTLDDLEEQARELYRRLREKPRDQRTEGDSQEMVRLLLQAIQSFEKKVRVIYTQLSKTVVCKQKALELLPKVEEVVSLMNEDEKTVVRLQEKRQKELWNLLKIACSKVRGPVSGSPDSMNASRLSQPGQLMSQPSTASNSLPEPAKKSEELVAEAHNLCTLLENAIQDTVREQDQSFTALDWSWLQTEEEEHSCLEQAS
# Assay: Inhibition of human recombinant C-terminal FLAG-epitope-tagged IKK2 expressed in baculovirus using biotinylated IkappaBalpha peptide as substrate assessed as decrease in [gamma-33P]-ATP incorporation in substrate after 30 mins by scintillation counting method
row,Structure (SMILES),IC50
1,CN1CCCN(c2cc(C(=O)Nc3ccc4c(c3)-c3c(c(C(N)=O)nn3-c3ccc(F)cc3)CC4)c(Cl)cn2)CC1,≤ 1 µM
2,NC(=O)c1nn(-c2ccc(-c3cccc(C(=O)O)c3)cc2)c2c1CCc1ccc(NC(=O)c3ccccc3Cl)cc1-2,1 to 10 µM
3,NC(=O)c1nn(-c2cccc(Cl)c2)c2c1CCc1ccc(NC(=O)c3ccccc3Cl)cc1-2,≤ 1 µM
4,CC(=O)Oc1cccc(C(=O)Nc2ccc3c(c2)-c2c(c(C(N)=O)nn2-c2ccc(S(C)(=O)=O)cc2)CC3)c1C,1 to 10 µM
5,NC(=O)c1nn(-c2ccc(OCC(O)CO)cc2)c2c1CCc1ccc(NC(=O)c3cccnc3Cl)cc1-2 (stereo not given),≤ 1 µM
6,COc1ccc(CNc2ncccc2C(=O)Nc2ccc3c(c2)-c2c(c(C(N)=O)nn2-c2ccc4c(c2)OCO4)CC3)cc1,10 to 100 µM
7,NC(=O)c1nn(-c2ccc(S(N)(=O)=O)cc2)c2c1CCc1ccc([N+](=O)[O-])cc1-2,> 100 µM
8,CC1Cc2c(C(N)=O)nn(-c3ccc(N)cc3F)c2-c2cc(NC(=O)c3ccncc3Cl)ccc21 (stereo not given),≤ 1 µM
9,CS(=O)(=O)c1ccc(-n2nc(C(N)=O)c3c2-c2cc(NC(=O)Cc4ccccc4)ccc2CC3)cc1,1 to 10 µM
10,COc1ccc(C(=O)Nc2ccc3c(c2)-c2c(c(C(N)=O)nn2-c2ccc(S(N)(=O)=O)cc2)CC3)cc1,≤ 1 µM
11,NC(=O)c1nn(-c2ccc(F)c(F)c2)c2c1CCc1ccc(NC(=O)c3cccc(Cl)c3Cl)cc1-2,1 to 10 µM
12,NC(=O)c1nn(-c2ccc(F)cc2)c2c1CCc1ccc(NC(=O)c3cc(-c4ccncc4)ncc3Cl)cc1-2,≤ 1 µM
13,NC(=O)c1nn(-c2ccc(S(N)(=O)=O)cc2)c2c1CCc1ccc(NC(=O)C3CCC3)cc1-2,1 to 10 µM
14,Cc1ccccc1C(=O)Nc1ccc2c(c1)-c1c(c(C(N)=O)nn1-c1ccc3c(c1)OCO3)CC2,1 to 10 µM
15,CCS(=O)(=O)Nc1ccc2c(c1)-c1c(c(C(N)=O)nn1-c1ccc(S(N)(=O)=O)cc1)CC2,≤ 1 µM
